Assay results taken from ChEMBL document CHEMBL2424593, “New scaffolds of natural origin as Integrase-LEDGF/p75 interaction inhibitors: virtual screening and activity assays” (Eur J Med Chem, 2013).
Active and inactive are the calls of the source. No cut-off for these calls is given here.

Legend:
[1] = Inhibition of HIV1 His6-tagged integrase-LEDGF/p75 (unknown origin) interaction incubated for 30 mins followed by LEDGF/p75 addition measured after 4 hrs
[2] = Inhibition of HIV1 His6-tagged integrase-LEDGF/p75 (unknown origin) interaction at 100 uM incubated for 30 mins followed by LEDGF/p75 addition measured after 4 hrs relative to control
[3] = test system: Human immunodeficiency virus; assay: Antiviral activity against HIV 3B infected in human MT4 cells assessed as protection against virus-induced cytopathic effect at 100 uM by MTT assay; format: functional, organism-based
MT4 = assay: Cytotoxicity against human MT4 cells at 125 uM by MTT assay; format: cell-based; settings: mt4, 125 µM

Work on `O=C(O)Cc1c(-c2ccccc2)c2cc(Cl)ccc2[nH]c1=O` yielded an IC50 [1] of 12.2 µM.

`CCc1cc(C(=O)Cc2ccc3c(c2)OCCO3)c(O)cc1OCC(=O)O` gave an IC50 [1] of over 100 µM and an inhibition [2] of 50%.

Work on `Cc1ccc2[nH]c(=O)c(CC(=O)O)c(-c3ccccc3)c2c1` yielded an IC50 [1] of 52.5 µM and an inhibition [2] of 61%.

With `COc1ccc2nc(C)cc(Nc3cccc(C(=O)O)c3)c2c1` the inhibition [2] was 30%.

In the case of `Cc1cn2c3c(=O)n(CCc4ccccc4)c(=O)n(C)c3nc2n1CC(=O)O`, the inhibition [2] is reported as 52%.

In the case of `Cn1c(=O)c(CC(=O)O)c(O)c2ccccc21`, the inhibition [2] is reported as “inactive”.

`O=C(O)c1nn(Cc2ccc(Cl)cc2Cl)c2ccccc12` gave an inhibition [2] of 40%.

For `Cc1c(OC(C(=O)O)c2ccccc2)ccc2c(-c3ccccc3)cc(=O)oc12` (racemic), the Activity [3] was “inactive”, the IC50 [1] was 37.2 µM and the inhibition [2] was 87%.

`CCCC(C(=O)O)c1cnc2ccc(Cl)cc2c1-c1ccccc1` (racemic) showed an IC50 [1] of 1.37 µM.

For `COc1ccc(/C=C2/SC(=S)N(C(C(=O)O)C(C)C)C2=O)cc1` (racemic), the Activity (MT4) was “Non-toxic”, the Activity [3] was “inactive” and the IC50 [1] was 41.3 µM.

Compound `O=C(O)c1cc(N(Cc2ccccc2O)Cc2ccccc2O)ccc1O` [LAVENDUSTIN B] has an IC50 [1] of 94.1 µM and an inhibition [2] of 58%.
